# Results reported in PubChem BioAssay (NCI).
#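 The concentration for 50% growth inhibition is given as GI50. TGI marks complete inhibition of growth.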
# Legend:
# Test in all cases: DTP human tumour cell line panel, 384-well format
# [1] = system: CCRF-CEM leukemia
# [2] = system: SW-620 colon
# [3] = system: SF-295 CNS
# [4] = system: OVCAR-4 ovarian
# [5] = system: A498 renal
# [6] = system: OVCAR-8 ovarian
# [7] = system: COLO 205 colon
# [8] = system: EKVX NSCLC
# [9] = system: KM12 colon
# [10] = system: A549 NSCLC
# [11] = system: HCT-116 colon
# [12] = system: HOP-62 NSCLC
# [13] = system: 786-0 renal
# [14] = system: OVCAR-5 ovarian
# [15] = system: T-47D breast
# [16] = system: RPMI-8226 leukemia
# [17] = system: NCI-H322M lung
# [18] = system: RXF 393 renal
# [19] = system: SK-MEL-2 melanoma
# [20] = system: MCF7 breast
# [21] = system: M14 melanoma
# [22] = system: MOLT-4 leukemia
# [23] = system: HCC-2998 colon
# [24] = system: SNB-19 CNS
# [25] = system: NCI-H460 NSCLC
# [26] = system: MALME-3M melanoma
# [27] = system: SK-MEL-28 melanoma
# [28] = system: NCI-H23 lung
# [29] = system: MDA-MB-231 breast
# [30] = system: SK-MEL-5 melanoma
# [31] = system: MDA-MB-435 melanoma
# [32] = system: MDA-MB-468 breast
# [33] = system: UACC-62 melanoma
# [34] = system: HS 578T breast
# [35] = system: DU-145 prostate
# [36] = system: ACHN renal
# [37] = system: U251 glioblastoma
# [38] = system: K-562 leukemia
# [39] = system: UACC-257 melanoma
# [40] = system: HT29 colon
# [41] = system: NCI/ADR-RES ovarian
# [42] = system: HL-60(TB) leukemia
# [43] = system: HOP-92 NSCLC
# [44] = system: CAKI-1 renal
# [45] = system: NCI-H226 lung
# [46] = system: LOX IMVI melanoma
# [47] = system: PC-3 prostate
structure (smiles),measurement,setting,value
CC(C)(O)CNc1nc(Nc2ccnc(C(F)(F)F)c2)nc(-c2cccc(C(F)(F)F)n2)n1,GI50,[1],14.4 µM
same,TGI,[1],28.1 µM
same,GI50,[2],24.4 µM
same,TGI,[2],55.2 µM
same,GI50,[3],16 µM
same,TGI,[3],29.8 µM
same,GI50,[4],19.7 µM
same,TGI,[4],36.3 µM
same,GI50,[5],19.9 µM
same,TGI,[5],39.9 µM
same,GI50,[6],17.4 µM
same,TGI,[6],38.3 µM
same,GI50,[7],18.5 µM
same,TGI,[7],34.8 µM
same,GI50,[8],19 µM
same,TGI,[8],38.5 µM
same,GI50,[9],17.9 µM
same,TGI,[9],34.8 µM
same,GI50,[10],17.3 µM
same,TGI,[10],35.4 µM
same,GI50,[11],17.3 µM
same,TGI,[11],33.2 µM
same,GI50,[12],15.1 µM
same,TGI,[12],28.8 µM
same,GI50,[13],17.4 µM
same,TGI,[13],37.6 µM
same,GI50,[14],27.3 µM
same,TGI,[14],73.5 µM
same,GI50,[15],9.87 µM
same,TGI,[15],23 µM
same,GI50,[16],18.7 µM
same,TGI,[16],32.9 µM
same,GI50,[17],16.1 µM
same,TGI,[17],31.4 µM
same,GI50,[18],12.3 µM
same,TGI,[18],27.5 µM
same,GI50,[19],0.265 µM
same,TGI,[19],1.17 µM
same,GI50,[20],15.9 µM
same,TGI,[20],30.5 µM
same,GI50,[21],19.8 µM
same,TGI,[21],35.2 µM
same,GI50,[22],13.7 µM
same,TGI,[22],26.8 µM
same,GI50,[23],16.3 µM
same,TGI,[23],30.4 µM
same,GI50,[24],32.3 µM
same,TGI,[24],87.2 µM
same,GI50,[25],17.5 µM
same,TGI,[25],32.6 µM
same,GI50,[26],18.4 µM
same,TGI,[26],33.9 µM
same,GI50,[27],16.9 µM
same,TGI,[27],31 µM
same,GI50,[28],18.7 µM
same,TGI,[28],35.6 µM
same,GI50,[29],18.7 µM
same,TGI,[29],34.5 µM
same,GI50,[30],13.8 µM
same,TGI,[30],26.8 µM
same,GI50,[31],19.9 µM
same,TGI,[31],37.7 µM
same,GI50,[32],20.3 µM
same,TGI,[32],35 µM
same,GI50,[33],17.8 µM
same,TGI,[33],31.8 µM
same,GI50,[34],14.6 µM
same,TGI,[34],29.5 µM
same,GI50,[35],16.3 µM
same,TGI,[35],31.6 µM
same,GI50,[36],20.9 µM
same,TGI,[36],40.5 µM
same,GI50,[37],18.8 µM
same,TGI,[37],38.7 µM
same,GI50,[38],14.7 µM
same,TGI,[38],28.7 µM
same,GI50,[39],19.4 µM
same,TGI,[39],33.8 µM
same,GI50,[40],15.2 µM
same,TGI,[40],29.6 µM
same,GI50,[41],13.9 µM
same,TGI,[41],27.5 µM
same,GI50,[42],14.9 µM
same,TGI,[42],28.3 µM
same,GI50,[43],19.3 µM
same,TGI,[43],37.7 µM
same,GI50,[44],21.3 µM
same,TGI,[44],45.2 µM
same,GI50,[45],16.2 µM
same,TGI,[45],31.7 µM
same,GI50,[46],10.7 µM
same,TGI,[46],25.1 µM
same,GI50,[47],18.2 µM
same,TGI,[47],33.9 µM
